The results in this text go back to ChEMBL document CHEMBL3877324, “Synthesis of new spirooxindole-pyrrolothiazole derivatives: Anti-cancer activity and molecular docking” (Bioorg Med Chem, 2017).

Experiment [1] can be described thus: Growth inhibition of human MCF7 cells after 48 hrs by WST1 assay. The experiment is classed as functional, cell-based. The note with it: MCF7, 48 h. In general terms: Tetrazolium dyes change colour on reduction, which living cells bring about.
A short description of experiment [2]: Growth inhibition of human K562 cells after 48 hrs by WST1 assay. The experiment is classed as functional, cell-based. The settings on record: K562, 48 h.
In experiment [3] the test system is MCF7. Briefly: Induction of apoptosis in human MCF7 cells at 10 uM after 48 hrs by Annexin-V FITC/propidium iodide staining based flow cytometry relative to control. The experiment is classed as functional.

As for `O=C1Nc2ccccc2[C@]12N1CSC[C@H]1[C@H](c1ccc(Cl)cc1)[C@]21CCC/C(=C\c2ccc(Cl)cc2)C1=O`, the results for the IC50 in experiment [1] and in experiment [2] were 49.1 µM and 24 µM, respectively.

As for `Cc1cccc(/C=C2\CCC[C@@]3(C2=O)[C@@H](c2cccc(C)c2)[C@@H]2CSCN2[C@@]32C(=O)Nc3ccccc32)c1`, the IC50 (usually the midpoint of a concentration-inhibition curve) came to 28.1 µM in experiment [1] and 30.7 µM in experiment [2].

`O=C1Nc2ccccc2[C@]12N1CSC[C@H]1[C@H](c1ccc(Br)cc1)[C@]21CCC/C(=C\c2ccc(Br)cc2)C1=O`: the “fold change (FC)” value in experiment [3] is on record as 2. Further, the IC50 in experiment [1] turned out to be 15.3 µM; in experiment [2] it was 14.7 µM.

Turning to `COc1ccc(/C=C2\CCC[C@@]3(C2=O)[C@@H](c2ccc(OC)cc2)[C@@H]2CSCN2[C@@]32C(=O)Nc3ccccc32)cc1`, the IC50 in experiment [1] came out at 24.4 µM; in experiment [2], 19.5 µM.

Take `O=C1Nc2ccccc2[C@]12N1CSC[C@H]1[C@H](c1cccc(F)c1)[C@]21CCC/C(=C\c2cccc(F)c2)C1=O`: the figures for the IC50 in experiment [1] and in experiment [2] were 145 µM and 15.7 µM, respectively.

For the molecule `O=C1Nc2ccccc2[C@]12N1CSC[C@H]1[C@H](c1ccccc1)[C@]21CCC/C(=C\c2ccccc2)C1=O`, the IC50 was 26.8 µM in experiment [1] and 16.6 µM in experiment [2].

For `O=C1Nc2ccccc2[C@]12N1CSC[C@H]1[C@H](c1cccc([N+](=O)[O-])c1)[C@]21CCC/C(=C\c2cccc([N+](=O)[O-])c2)C1=O`, the IC50 in experiment [1] was 25.8 µM; in experiment [2] it was 27.6 µM.

For the molecule `O=C1Nc2ccccc2[C@]12N1CSC[C@H]1[C@H](c1cccc(Br)c1)[C@]21CCC/C(=C\c2cccc(Br)c2)C1=O`, the IC50 was 34.8 µM in experiment [1] and 22.2 µM in experiment [2].

With `Cc1ccc(/C=C2\CCC[C@@]3(C2=O)[C@@H](c2ccc(C)cc2)[C@@H]2CSCN2[C@@]32C(=O)Nc3ccccc32)cc1`, the half-inhibitory concentration (IC50) in experiment [1] amounted to 43.1 µM; in experiment [2], 38.1 µM.

For `O=C1Nc2ccccc2[C@]12N1CSC[C@H]1[C@H](c1ccc(C(F)(F)F)cc1)[C@]21CCC/C(=C\c2ccc(C(F)(F)F)cc2)C1=O`, the 50% inhibitory concentration (IC50) stood at 49.4 µM in experiment [1] and 33.2 µM in experiment [2].

Turning to `O=C1Nc2ccccc2[C@]12N1CSC[C@H]1C(c1ccc(Cl)cc1Cl)[C@]21CCC/C(=C\c2ccc(Cl)cc2Cl)C1=O` (single isomer, unassigned), the IC50 in experiment [1] was determined as 26.1 µM; in experiment [2], 19.5 µM.

The molecule `O=c1[nH]cc(F)c(=O)[nH]1` [FLUOROURACIL] yielded an IC50 in experiment [1] of 78.3 µM.
